Results on 5 compounds are retold here after ChEMBL document CHEMBL1156858, “Comparative analysis of DNA alkylation by conjugates between pyrrole-imidazole hairpin polyamides and chlorambucil or seco-CBI” (2010).

Activity calls are given as the source filed them. The rule behind the calls is not given here.

Experiment [1] concerns Nucleic Acid. Put plainly: Induction of DNA alkylation at 5'-AAAAAAGACTGCT-3' site of 5'-Texas Red-modified 209bp DNA fragment at 10 nm to 1 uM after 18 hrs at 23 degC by high-resolution denaturing PAGE. Format: nucleic-acid assay.
The test system of experiment [2] is Nucleic Acid. Put plainly: Induction of DNA alkylation at 5'-TCTTTTTAA-3' site of 5'-Texas Red-modified 209bp DNA fragment at 10 nm to 1 uM after 18 hrs at 23 degC by high-resolution denaturing PAGE. It is filed as nucleic-acid assay.
The test system of experiment [3] is Nucleic Acid. As to the kind of experiment: Induction of DNA alkylation at 3'-side adenines in 5'-AGCAGTCAAAAA-3' site of 5'-Texas Red-modified 209bp DNA fragment at 10 nm to 1 uM after 18 hrs at 23 degC by high-resolution denaturing PAGE. It is filed as nucleic-acid assay.
Experiment [4] deals with K562. Put plainly: Growth inhibition of human K562 cells after 48 hrs by WST8 dye reduction assay. It is filed as functional. Particulars: K562, 48 h. Background: Tetrazolium assays rely on reduction of a dye to a coloured formazan, in cell work by metabolically active cells.
Experiment [5] has as its system Nucleic Acid. Put plainly: Induction of DNA alkylation at 5' side in 5'-AGCAGTC-3' site of 5'-Texas Red-modified 209bp DNA fragment at 10 nm to 1 uM after 18 hrs at 23 degC by high-resolution denaturing PAGE. It is filed as nucleic-acid assay.

As for `CN(C)CCCNC(=O)c1cc(NC(=O)c2cc(NC(=O)c3nc(NC(=O)CCNC(=O)c4cc(NC(=O)c5ncc(NC(=O)CCCNC(=O)c6cc(NC(=O)c7nc(NC(=O)CCNC(=O)c8cc(NC(=O)c9cc(NC(=O)c%10nc(NC(=O)CCCc%11ccc(N(CCCl)CCCl)cc%11)cn%10C)cn9C)cn8C)cn7C)cn6C)n5C)cn4C)cn3C)cn2C)cn1C`, the outcome in experiment [1] was inactive. Further, the result in experiment [2] and in experiment [3] was Active. In experiment [4], the GI50 is > 2500 nM.
Turning to `CN(C)CCCNC(=O)c1cc(NC(=O)c2cc(NC(=O)c3nc(NC(=O)CCNC(=O)c4cc(NC(=O)c5ncc(NC(=O)CCCNC(=O)c6cc(NC(=O)c7nc(NC(=O)CCNC(=O)c8cc(NC(=O)c9cc(NC(=O)c%10nc(NC(=O)CCNC(=O)CCCc%11ccc(N(CCCl)CCCl)cc%11)cn%10C)cn9C)cn8C)cn7C)cn6C)n5C)cn4C)cn3C)cn2C)cn1C`, the outcome in experiment [1] was inactive. Also, the outcome in experiment [3] was Active. Also, growth in experiment [4] was halved (GI50) at 8000 nM.
Taken in the same sequence, the figures for `CC(=O)Nc1cn(C)c(C(=O)Nc2cc(C(=O)Nc3cc(C(=O)NCCC(=O)Nc4cn(C)c(C(=O)Nc5cc(C(=O)NCCCC(=O)Nc6cnc(C(=O)Nc7cc(C(=O)NCCC(=O)Nc8cn(C)c(C(=O)Nc9cc(C(=O)Nc%10cc(C(=O)NCCCN(C)CCCNC(=O)CCCc%11ccc(N(CCCl)CCCl)cc%11)n(C)c%10)n(C)c9)n8)n(C)c7)n6C)n(C)c5)n4)n(C)c3)n(C)c2)n1` were “Active”, “Active” and > 2500 nM.
In the case of `CC(=O)Nc1cn(C)c(C(=O)Nc2cc(C(=O)Nc3cc(C(=O)NCCC(=O)Nc4cn(C)c(C(=O)Nc5cc(C(=O)N[C@H](CCNC(=O)CCCc6ccc(N(CCCl)CCCl)cc6)C(=O)Nc6cnc(C(=O)Nc7cc(C(=O)NCCC(=O)Nc8cn(C)c(C(=O)Nc9cc(C(=O)Nc%10cc(C(=O)NCCCN(C)C)n(C)c%10)n(C)c9)n8)n(C)c7)n6C)n(C)c5)n4)n(C)c3)n(C)c2)n1`, the outcome in experiment [1] was inactive. Also, the outcome in experiment [3] and in experiment [5] was Active. Also, in experiment [4], the GI50 was > 10000 nM.
Take `CC(=O)Nc1cn(C)c(C(=O)Nc2cc(C(=O)Nc3cc(C(=O)NCCC(=O)Nc4cn(C)c(C(=O)Nc5cc(C(=O)NCCCC(=O)Nc6cn(C)c(C(=O)Nc7cc(C(=O)NCCC(=O)Nc8cn(C)c(C(=O)Nc9ccc%10[nH]c(C(=O)N%11CC(CCl)c%12c%11cc(O)c%11ccccc%12%11)cc%10c9)n8)n(C)c7)n6)n(C)c5)n4)n(C)c3)n(C)c2)n1` (configuration not stated): the result in experiment [2] and in experiment [3] was Active. This compound returned a GI50 in experiment [4] of 60 nM.

What is called GI50 is the concentration that inhibits growth by half. A high value points to less potent growth inhibition.
